Source: PubChem BioAssay AID226 (DTP/NCI, 2004)
Where “and” joins values, the source holds several entries; their conditions need not be identical. Equal entries are not always repeated. Toxic doses and inconclusive results are not listed.

System: B6C3F1 mice, intracerebral ependymoblastoma, median survival T/C
Assay: NCI In Vivo Anticancer Drug Screen. Data for tumor model Ependymoblastoma (intracerebral) in B6C3F1 mice
Settings: endpoint: median survival time, higher = longer survival
Protocol: The antitumor activity of compounds was measured in mice bearing transplantable tumors. Survival or tumor size were measured and the results are expressed as the measurement made in the treated group (T) divided by the measurement made in the vehicle treated control group (C). The tumor model used in this assay is Ependymoblastoma (intracerebral) in B6C3F1 mice

[1] = dose: 25.0 mg/kg/injection, schedule: Q01DX005 (ip), vehicle: saline
[2] = dose: 50.0 mg/kg/injection, schedule: Q01DX005 (ip), vehicle: saline
[3] = dose: 2.0 mg/kg/injection, schedule: Q01DX005 (ip), vehicle: saline
[4] = dose: 4.0 mg/kg/injection, schedule: Q01DX005 (ip), vehicle: saline
[5] = dose: 8.0 mg/kg/injection, schedule: Q01DX005 (ip), vehicle: saline
[6] = dose: 16.0 mg/kg/injection, schedule: Q01DX005 (ip), vehicle: saline
[7] = dose: 32.0 mg/kg/injection, schedule: Q01DX005 (ip), vehicle: saline
[8] = dose: 12.5 mg/kg/injection, schedule: Q01DX001 (ip), vehicle: water
[9] = dose: 64.0 mg/kg/injection, schedule: Q01DX005 (ip), vehicle: saline
[10] = dose: 128.0 mg/kg/injection, schedule: Q01DX005 (ip), vehicle: saline

Cc1ncc(CNC(=O)N(CCCl)N=O)c(N)n1 was tested, and the T/C (dose: 8.0 mg/kg/injection, schedule: Q01DX001 (ip), vehicle: water) was 108 % of control and 121 % of control, the T/C (dose: 16.0 mg/kg/injection, schedule: Q01DX001 (ip), vehicle: water) was 175 % of control and the T/C (dose: 32.0 mg/kg/injection, schedule: Q01DX001 (ip), vehicle: water) was 262 % of control and 267 % of control.

CC(=O)Nc1ccn(C2OC(COC(C)=O)C(OC(C)=O)C2OC(C)=O)c(=O)n1 (stereo not drawn) was tested, and the T/C (dose: 150.0 mg/kg/injection, schedule: Q01DX005 (ip), vehicle: saline with Tween-80) was 105 % of control, the T/C (dose: 300.0 mg/kg/injection, schedule: Q01DX005 (ip), vehicle: saline with Tween-80) was 112 % of control and the T/C (dose: 600.0 mg/kg/injection, schedule: Q01DX005 (ip), vehicle: saline with Tween-80) was 107 % of control. The T/C (dose: 1200.0 mg/kg/injection, schedule: Q01DX005 (ip), vehicle: saline with Tween-80) was 120 % of control.

For Cc1cc2nc3ccc(N)cc3oc-2cc1=[N+](C)C, the T/C (dose: 6.25 mg/kg/injection, schedule: Q01DX005 (ip), vehicle: saline) was 106 % of control, the T/C (dose: 12.5 mg/kg/injection, schedule: Q01DX005 (ip), vehicle: saline) was 105 % of control and the T/C [1] was 102 % of control. The T/C [2] was 91 % of control.

In the case of Cc1ncc(CO)c(C)c1O, the T/C (dose: 128.0 mg/kg/injection, schedule: Q01DX005 (ip), vehicle: Klucel (hydroxypropylcellulose) (HPC)) is reported as 102 % of control and 108 % of control and the T/C (dose: 256.0 mg/kg/injection, schedule: Q01DX005 (ip), vehicle: Klucel (hydroxypropylcellulose) (HPC)) is reported as 101 % of control and 105 % of control.

For [Cl][Pt+2][Cl].[NH-]C1CCC1.[NH-]C1CCC1, the T/C (dose: 10.0 mg/kg/injection, schedule: Q01DX005 (ip), vehicle: dextrose) was 103 % of control, the T/C (dose: 20.0 mg/kg/injection, schedule: Q01DX005 (ip), vehicle: dextrose) was 103 % of control and the T/C (dose: 80.0 mg/kg/injection, schedule: Q01DX005 (ip), vehicle: dextrose) was 90 % of control.

COc1ccc2c(c1OC(C)=O)-c1cc(OC(C)=O)cc3c1C(C2)N(C(=O)CBr)CC3 (stereo not drawn) was tested, and the T/C [1] was 96 % of control and the T/C [2] was 91 % of control.

With N[C@H](C(=O)O)[C@@H]1CC(Cl)=NO1 the T/C (dose: 1.0 mg/kg/injection, schedule: Q01DX005 (ip), vehicle: saline + Tween-80 + alcohol) was 112 % of control, the T/C (dose: 2.0 mg/kg/injection, schedule: Q01DX005 (ip), vehicle: saline + Tween-80 + alcohol) was 106 % of control and the T/C [3] was 97 % of control and 111 % of control. For the same molecule, the T/C (dose: 4.0 mg/kg/injection, schedule: Q01DX005 (ip), vehicle: saline + Tween-80 + alcohol) was 114 % of control, the T/C [4] was 104 % of control and 121 % of control and the T/C (dose: 8.0 mg/kg/injection, schedule: Q01DX005 (ip), vehicle: saline + Tween-80 + alcohol) was 118 % of control. For the same molecule, the T/C [5] was 111 % of control and 117 % of control, the T/C (dose: 16.0 mg/kg/injection, schedule: Q01DX005 (ip), vehicle: saline + Tween-80 + alcohol) was 89 % of control and the T/C [6] was 109 % of control and 124 % of control. The T/C [7] was 111 % of control.

For O=NN(CCCl)C(=O)NC1CCN(Cc2ccccc2)CC1, the T/C [8] was 124 % of control, the T/C (dose: 50.0 mg/kg/injection, schedule: Q01DX001 (ip), vehicle: water) was 160 % of control and the T/C (dose: 100.0 mg/kg/injection, schedule: Q01DX001 (ip), vehicle: water) was 242 % of control.

For COC1OC(CNC(=O)N(C)N=O)C(O)C(O)C1O (stereo not drawn), the T/C [1] was 124 % of control, the T/C [2] was 121 % of control and the T/C (dose: 400.0 mg/kg/injection, schedule: Q01DX005 (ip), vehicle: saline) was 164 % of control.

CN(C)C(=O)N(CCCl)N=O was tested, and the T/C (dose: 5.0 mg/kg/injection, schedule: Q01DX001 (ip), vehicle: DMSO) was 106 % of control, the T/C (dose: 8.3 mg/kg/injection, schedule: Q01DX001 (ip), vehicle: DMSO) was 112 % of control and the T/C [8] was 188 % of control. For the same molecule, the T/C (dose: 23.0 mg/kg/injection, schedule: Q01DX001 (ip), vehicle: DMSO) was 366 % of control, the T/C (dose: 25.0 mg/kg/injection, schedule: Q01DX001 (ip), vehicle: water) was 332 % of control and the T/C (dose: 38.4 mg/kg/injection, schedule: Q01DX001 (ip), vehicle: DMSO) was 365 % of control.

COc1ccc2c(c1OC(C)=O)-c1cc(O)cc3c1C(C2)N(C(=O)CN(CCCl)CCCl)CC3 (stereo not drawn) was tested, and the T/C (dose: 3.12 mg/kg/injection, schedule: Q01DX005 (ip), vehicle: saline with Tween-80) was 96 % of control, the T/C (dose: 6.25 mg/kg/injection, schedule: Q01DX005 (ip), vehicle: saline with Tween-80) was 102 % of control and the T/C (dose: 12.5 mg/kg/injection, schedule: Q01DX005 (ip), vehicle: saline with Tween-80) was 105 % of control.

Cc1nc(N)nc(N)c1-c1ccc(Cl)c(Cl)c1 was tested, and the T/C (dose: 1.25 mg/kg/injection, schedule: Q01DX005 (ip), vehicle: saline) was 106 % of control, the T/C (dose: 2.5 mg/kg/injection, schedule: Q01DX005 (ip), vehicle: saline) was 102 % of control and the T/C (dose: 5.0 mg/kg/injection, schedule: Q01DX005 (ip), vehicle: saline) was 120 % of control.

For O=c1[nH]cc(F)c(=O)[nH]1, the T/C (dose: 0.5 mg/kg/injection, schedule: Q01DX005 (ip), vehicle: saline) was 108 % of control, the T/C (dose: 1.0 mg/kg/injection, schedule: Q01DX005 (ip), vehicle: saline) was 108 % of control and the T/C [3] was 111 % of control. The T/C [4] was 113 % of control, the T/C [5] was 105 % of control and the T/C [6] was 105 % of control. For the same molecule, the T/C [7] was 120 % of control.

CN(N=O)C(=O)Nc1c[nH]c(=O)[nH]c1=O was tested, and the T/C (dose: 16.0 mg/kg/injection, schedule: Q01DX005 (ip), vehicle: saline with Tween-80) was 114 % of control.

With O=C(O)C1(C(=O)O)CCC1.[NH2-].[NH2-].[Pt+2] the T/C (dose: 16.0 mg/kg/injection, schedule: Q01DX005 (ip), vehicle: dextrose) was 110 % of control and 118 % of control and the T/C (dose: 32.0 mg/kg/injection, schedule: Q01DX005 (ip), vehicle: dextrose) was 119 % of control and 120 % of control.

In the case of COc1ccc(C[C@H](N)C(=O)NC2C(CO)OC(n3cnc4c(N(C)C)ncnc43)C2O)cc1 (stereo partly drawn), the T/C [5] is reported as 101 % of control, the T/C [6] is reported as 101 % of control and the T/C [7] is reported as 103 % of control. For the same molecule, the T/C [9] was 94 % of control and the T/C [10] was 102 % of control.

In the case of CC(=O)OCC1OC(n2ccc(N)nc2=O)C(OC(C)=O)C1OC(C)=O (stereo not drawn), the T/C (dose: 50.0 mg/kg/injection, schedule: Q01DX005 (ip), vehicle: Klucel (hydroxypropylcellulose) (HPC)) is reported as 98 % of control, the T/C (dose: 100.0 mg/kg/injection, schedule: Q01DX005 (ip), vehicle: Klucel (hydroxypropylcellulose) (HPC)) is reported as 102 % of control and the T/C (dose: 200.0 mg/kg/injection, schedule: Q01DX005 (ip), vehicle: Klucel (hydroxypropylcellulose) (HPC)) is reported as 117 % of control.

In the case of Nc1nc([Se])c2ncn(C3OC(CO)C(O)C3O)c2n1 (stereo not drawn), the T/C (dose: 4.0 mg/kg/injection, schedule: Q01DX005 (ip), vehicle: saline with Tween-80) is reported as 113 % of control, the T/C [4] is reported as 102 % of control and the T/C (dose: 8.0 mg/kg/injection, schedule: Q01DX005 (ip), vehicle: Klucel (hydroxypropylcellulose) (HPC)) is reported as 106 % of control. For the same molecule, the T/C (dose: 8.0 mg/kg/injection, schedule: Q01DX005 (ip), vehicle: saline with Tween-80) was 109 % of control, the T/C [5] was 95 % of control and 105 % of control and 114 % of control and the T/C (dose: 16.0 mg/kg/injection, schedule: Q01DX005 (ip), vehicle: Klucel (hydroxypropylcellulose) (HPC)) was 106 % of control. The T/C [6] was 102 % of control and 108 % of control, the T/C (dose: 32.0 mg/kg/injection, schedule: Q01DX005 (ip), vehicle: Klucel (hydroxypropylcellulose) (HPC)) was 106 % of control and the T/C [7] was 116 % of control and 121 % of control.

O=c1ccn(C2OC(CO)C(O)C2O)c(=O)[nH]1 (stereo not drawn) was tested, and the T/C (dose: 64.0 mg/kg/injection, schedule: Q01DX005 (ip), vehicle: saline with Tween-80) was 113 % of control, the T/C [9] was 109 % of control and the T/C (dose: 128.0 mg/kg/injection, schedule: Q01DX005 (ip), vehicle: saline with Tween-80) was 90 % of control. The T/C [10] was 94 % of control, the T/C (dose: 256.0 mg/kg/injection, schedule: Q01DX005 (ip), vehicle: saline with Tween-80) was 109 % of control and the T/C (dose: 256.0 mg/kg/injection, schedule: Q01DX005 (ip), vehicle: saline) was 100 % of control. For the same molecule, the T/C (dose: 512.0 mg/kg/injection, schedule: Q01DX005 (ip), vehicle: saline with Tween-80) was 99 % of control, the T/C (dose: 512.0 mg/kg/injection, schedule: Q01DX005 (ip), vehicle: saline) was 94 % of control and the T/C (dose: 1024.0 mg/kg/injection, schedule: Q01DX005 (ip), vehicle: saline with Tween-80) was 99 % of control. For the same molecule, the T/C (dose: 1024.0 mg/kg/injection, schedule: Q01DX005 (ip), vehicle: saline) was 96 % of control.
